Measurements published in PubChem BioAssay (NCI).
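Growth conditions: 96-well plates. Treatment: test compound, 48 hours, 5 concentrations. Analysis: linear interpolation between bracketing concentrations; unreached endpoints set to highest concentration. TGI is the concentration that stops growth completely.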

Key:
Test in all cases: NCI tumour cell line growth inhibition, 48 h
[1] = tested on: SK-MEL-2 melanoma
[2] = tested on: M14 melanoma
[3] = tested on: SF-268 CNS
[4] = tested on: NCI-H460 lung
[5] = tested on: NCI-H23 lung
[6] = tested on: SR leukemia
[7] = tested on: OVCAR-8 ovarian
[8] = tested on: CAKI-1 renal
[9] = tested on: MDA-N
[10] = tested on: HS 578T breast
[11] = tested on: OVCAR-4 ovarian
[12] = tested on: T-47D breast
[13] = tested on: MDA-MB-435
[14] = tested on: K-562 leukemia
[15] = tested on: MCF7 breast
[16] = tested on: HCT-15 colon
[17] = tested on: 786-0 renal
[18] = tested on: SK-MEL-28 melanoma
[19] = tested on: SF-539 CNS
[20] = tested on: DMS 273 small cell lung

| Compound | TGI [1] [µM] | TGI [2] [µM] | TGI [3] [µM] | TGI [4] [µM] | TGI [5] [µM] | TGI [6] [µM] | TGI [7] [µM] | TGI [8] [µM] | TGI [9] [µM] | TGI [10] [µM] | TGI [11] [µM] | TGI [12] [µM] | TGI [13] [µM] | TGI [14] [µM] | TGI [15] [µM] | TGI [16] [µM] | TGI [17] [µM] | TGI [18] [µM] | TGI [19] [µM] | TGI [20] [µM] |
| --- | --- | --- | --- | --- | --- | --- | --- | --- | --- | --- | --- | --- | --- | --- | --- | --- | --- | --- | --- | --- |
| CN(C)c1ccc(C2CC(c3ccc4ccccc4c3O)=NN2)cc1 (configuration not stated) | > 100 | > 100 | > 100 | > 100 | > 100 | 51.7 | > 100 | > 100 | > 100 | > 100 | > 100 | > 100 | > 100 | 90.2 | > 100 | > 100 | 59.7 | > 100 | 70.5 |  |
| N#CC(C#N)=C1C(=Cc2ccc(OCCCCCCCCCCSSCCCCCCCCCCOc3ccc(C=C4C(=C(C#N)C#N)c5ccccc5C4=C(C#N)C#N)cc3)cc2)C(=C(C#N)C#N)c2ccccc21 | 64 | 47.9 | 55.1 | 44.7 | 32.6 | 68 | > 100 | 71.2 | 88.3 | 52.4 | 52.9 | > 100 | > 100 | 60.4 | 48 | 31.6 | 41.7 | 52.4 | 47 |  |
| S=C1NCCN1 | > 100 | > 100 | > 100 |  | > 100 | > 100 | > 100 | > 100 |  |  | > 100 |  |  | > 100 |  | > 100 | > 100 | > 100 | > 100 | > 100 |
| O=C1N(C2CCCCC2)C(=O)N1C1CCCCC1 | 85.5 | 20.7 | 40.2 | 30.3 | 23.8 | 8.83 | 16.6 | 25.2 | 17 | 2.93 | 31.7 | 17.4 | > 81.4 | 13.4 | 48.6 | 22.2 | > 67.6 | 20.7 | 45.1 |  |
| COc1cc2c(c(OC)c1O)-c1ccc(SC)c(=O)cc1C(NC(C)=O)CC2 (configuration not stated) | > 5.54 | > 100 | > 100 | > 11 | 3.79 | > 100 | > 100 | > 100 |  |  | > 100 |  |  | > 100 |  | > 100 | > 100 | > 100 |  | > 100 |
| O=C(CSC(=S)N1CCCCC1)Nc1nc2c(s1)CCCC2 | > 100 | > 100 | > 100 | > 100 | 92.7 | > 100 | > 100 |  |  |  | > 100 |  |  |  |  | > 100 | > 100 | > 100 | > 100 | > 100 |
| O=C1OCN(c2ccccc2)C12CCN(Cc1ccccc1)CC2 | 48.4 | 33.1 | > 100 | 54.5 | > 100 | > 100 | > 100 | > 100 | 62.3 | 55.4 | > 100 | 63.8 | 31.2 | 24.1 | > 100 | 94.6 | 79.2 | 34 | 39.7 |  |
| COc1cccc2c1C(=O)C1=C(C2=O)C(O)CC(C)(C)O1 (configuration not stated) | > 100 | > 100 | > 100 | > 100 | 74.5 | 46.3 | 91.5 | > 100 | 36 | > 100 | 55.8 | > 100 | 35.2 | 50.3 | > 100 | > 100 | > 100 | > 100 | > 100 |  |
| CC1=C(C(=O)OCCO[N+](=O)[O-])C(c2cccc([N+](=O)[O-])c2)C(C(=O)OC(C)C)=C(C)N1 (configuration not stated) | 28 | 29.5 | 33 | 34.4 | 45.7 | > 100 | 54.2 | 95.7 | 28.1 | 33.2 | 37.7 | 53.6 | 30.9 | > 100 | 86.3 | 27.4 | 35.7 | 28.1 | 30.5 |  |
| O=c1ccn([C@@H]2C[C@H]2CO)c(=O)[nH]1 | > 100 | > 100 | > 100 | > 100 | > 100 | > 100 | > 100 | > 100 | > 100 | > 100 | > 100 | > 100 | > 100 | > 100 | > 100 | > 100 | > 100 | > 100 | > 100 |  |
| CC(C)(C)c1cc(C(=O)/C=C/c2c(Cl)cccc2Cl)cc(C(C)(C)C)c1O | 26.4 | 54.7 | > 58.9 | 24 | 48.9 | > 37 | > 100 | 54.9 | > 68.3 | > 84 | > 100 | 18 | 54.4 | > 100 | 46 | 27.9 | 29.7 | 41.3 | 31.6 |  |
| C1=CC2C=CC(C=C1)P2c1ccccc1 (configuration not stated) | > 100 | > 100 | > 100 | > 100 | > 100 | > 100 | > 100 | > 100 | > 100 | > 100 | > 100 | > 100 | > 100 | > 100 | > 100 | > 100 | > 100 | > 100 | > 100 |  |
| C[N+](C)(CCCn1ccnc1[N+](=O)[O-])CCCn1ccnc1[N+](=O)[O-] | > 100 | > 100 | > 100 | > 100 | > 100 | > 100 | > 100 | > 100 | > 100 | > 100 | > 100 | > 100 | > 100 | > 100 | > 100 | > 100 | > 100 | > 100 | > 100 |  |
| O=C(NC(=S)Nc1ccc(Br)cc1)c1ccc2c(c1)Sc1ccccc1S2 | 57.9 | 42.9 | 46.4 | 32.3 | 45.4 | 35.5 | 34.7 | 38.2 | > 100 | 59.7 | 33.5 | 33.4 | > 100 | 24.5 | > 100 | > 100 | 30.6 | > 100 | 53.5 |  |
| Cn1c2ccc([N+](=O)[O-])cc2c(=O)n1Cc1ccccc1F | > 100 | > 100 | > 100 | > 100 | > 100 | > 100 | > 100 | > 100 | > 100 | 82.8 | > 100 | > 100 | > 100 | > 100 | > 100 | > 100 | > 100 | > 100 | 79.6 |  |
| Cc1c2n(c(=O)[nH]c1=O)C1OC(CO)C(O2)C1N=[N+]=[N-] (configuration not stated) | > 100 |  | > 100 | > 100 | > 100 | > 100 | > 100 | > 100 |  |  | > 100 |  |  | > 100 |  | > 100 | > 100 | > 100 | > 100 | > 100 |
| O=[N+]([O-])C(=C(Cl)Cl)C(Cl)=C(Cl)Cl | 3.24 | 0.0871 | 4.92 | 5.21 | 1.96 | > 100 | 5.14 | 0.699 | 1.24 | 3.29 | 0.482 | 0.289 | 1.07 | 0.118 | 0.992 | 0.908 | 0.648 | 0.912 | 3.45 |  |
| C[n+]1c2ccccc2c(NCC(=O)O)c2ccccc21 | > 100 | > 100 | > 100 | > 100 | > 100 | > 100 | > 100 | > 100 |  |  | > 100 |  |  | > 100 |  | > 100 | > 100 |  | > 100 | > 100 |
| COc1ccc(NC(=S)Nc2cc(C)cc(C)n2)cc1 | > 100 | > 100 | > 100 | > 100 |  | > 100 | > 100 | > 100 | > 100 | > 100 | > 100 | > 100 | > 100 | > 100 | > 100 | > 100 | > 100 | > 100 | > 100 |  |
| CC(=O)Oc1c(C)c2c(c3ncccc13)OC(C)C2 (configuration not stated) | 40.1 | 28.5 | 28.8 | 22.7 | 32.9 | 22.7 | 27.5 | 27.8 | 32.3 | 59.4 | 29.9 | 34.8 | 19 | 35.5 | 32.5 | 24.5 | 26.7 | 26.8 | 28.7 |  |
| O=C(OCc1ccccc1)N(CCCCN(CCCNC(=O)C(F)(F)F)C(=O)OCc1ccccc1)CCCNC(=O)C(F)(F)F | > 100 | > 100 | > 100 | > 100 | > 100 | > 100 | > 100 | 3.55 | > 100 | > 100 | > 100 | > 100 | > 100 | > 100 | > 100 | > 100 | > 100 | > 100 | > 100 |  |
| COc1ccc(N2CN3OC(=O)N(c4ccc(OC)cc4)[C@@]3(c3ccccc3)C2)cc1 | 45.1 | > 100 | > 100 | > 100 | > 100 | 66.2 | > 100 | > 100 | 22.6 | > 100 | > 100 | 69.2 | 7.12 | > 100 | > 100 | > 100 | > 100 | > 100 | > 100 |  |
| C=Cc1nc2c(Cl)ncnc2n1Cc1ccccc1 | 26.3 | 15.7 | 22.9 | 23.6 | 11.6 | > 33.4 | 12 | 3.99 | 13.6 | 50.4 | 13.5 | 6.75 | 10.1 | > 40.1 | 9.53 | 8.05 | 4.49 | 11.3 | 8.77 |  |
| NC(=O)C(=CNC(N)=S)C(N)=O | > 100 | > 100 | > 100 | > 100 | > 100 | > 100 | > 100 | > 100 | > 100 | > 100 | > 100 | > 100 | > 100 | > 100 | > 100 | > 100 | > 100 | > 100 | > 100 |  |
| C1=CC2(C=CC13O[C@H](C1CCCCC1)[C@@H](C1CCCCC1)O3)O[C@H](C1CCCCC1)[C@@H](C1CCCCC1)O2 | > 50 | > 50 | > 50 | > 50 | > 50 | > 50 | > 50 | > 50 | > 50 | > 50 | > 50 | > 50 | > 50 | > 50 | > 50 | > 50 | > 50 | > 50 | > 50 |  |
| CN1CCc2cc3c(c4c2C1C(O)c1ccccc1-4)OCO3 (configuration not stated) | 21.7 | 19.5 | 27.7 | 11.9 | 48.2 | 28.8 | 50.5 | 18.2 | 16.1 | 19.5 | 29.5 | > 100 | 28 | 63.5 | 19.3 | 20.3 | 62.2 | 85.7 | > 100 |  |
